The values that follow come from patent US10172839B2, “Use of short term starvation regimen in combination with kinase inhibitors to enhance traditional chemo-drug efficacy and feasibility and reverse side effects of kinases in normal cells and tissues” (UNIVERSITY OF SOUTHERN CALIFORNIA, priority 2014, dated 2019).

The nature of data set [1]: Stress resistance experiment: survival after high dose doxorubicin.
Data set [2] is described as follows: Blood glucose levels in mice treated with STS, rapamycin, and rapamycin with STS. It counts as in vivo. How it is done: Methods: Short term starvation (STS) or fasting mimicking diet (FMD) were administrated bi-weekly for periods of 48 h or 4 days, respectively. The end of the dietary intervention coincided with the administration of doxorubicin by intravenous injection. The animals were given a period of 10 to 12 days to recover bodyweight between one cycle of dietary intervention and the next. […] One-way ANOVA test was performed and differences with p-value<0.05 were considered significant (p-value<0.05, 0.01 and 0.001 are indicated as *, […], respectively).

Consider `CO[C@H]1C[C@@H]2CC[C@@H](C)[C@@](O)(O2)C(=O)C(=O)N2CCCC[C@H]2C(=O)O[C@H]([C@H](C)C[C@@H]2CC[C@@H](O)[C@H](OC)C2)CC(=O)[C@H](C)/C=C(\C)[C@@H](O)[C@@H](OC)C(=O)[C@H](C)C[C@H](C)/C=C/C=C/C=C/1C` [rapamycin], for which the “mortality / survival at day 20” value in data set [1] (rapamycin 14 days + STS 48 h prior to doxorubicin 24 mg/kg iv (FIG. 2B)) is on record as “STS can reverse the sensitization of normal tissue to chemotherapy induced by rapamycin”; in data set [1] (rapamycin 14 days, then doxorubicin 24 mg/kg iv, ad lib feeding (FIG. 2B)) it was “increased mortality”. Also, the blood glucose entry in data set [2] (Rapa+STS/FMD mice (FIG. 1A)) is “decreased blood glucose”; in data set [2] (rapamycin alone, intraperitoneally every day, ad lib feeding (FIG. 1A)) it was “increase of blood glucose”.
